# “Also recorded” adds a separate entry of the source.
# Key:
# AQP4 [1] = assay: AQP4 mRNA expression in RMG cells (Example 2); assay type: cell-based
# Excerpt: We have performed several experiments.
# aquaporin 1 = assay: Aquaporin 1 expression after exposure to aldosterone; conditions: normal rat, 24 hours exposure, low aldosterone dose (1-10 nM)
# AQP4 [2] = assay: AQP4 immunofluorescence and flat-mount confocal imaging in retina of aldosterone-injected eyes; assay type: in vivo, Lewis rats; conditions: aldosterone-injected vs sham-injected eyes
# Procedure: (§1) Anesthesia of rats was induced by intramuscular injection of ketamine (100 mg/kg, Virbac, Carros, France) and chlorpromazine (0.65 mg/kg, LARGACTIL®, Sanofi Aventis, Livron sur Drome, France). Intravitreous injections were performed using microfine (300 μl) syringes with 30 G needles under topical anesthesia (tetracaine 1%, Aldrich, Lyon, France). Rat eyes were injected with 5 μl aldosterone diluted in 0.9% saline to obtain a concentration of 200 nM for injection, corresponding to a final concentration of 20 nM in the vitreous. Control rat eyes were injected with 5 μl saline. Twenty-four hrs after injection, rats were sacrificed. Eyes were then removed for retinal flat mounting, immunohistochemistry and morphological analysis respectively.
# Eyes were fixed for 15 min in 4% paraformaldehyde (PFA, LADD, Inland Europe, Conflans-sur-Lanterne, France). After washing, retinas were isolated, cut by 4 orthogonal incisions and post-fixed with acetone 100% at −20° C. for 15 min. […]
# Eyes were snap frozen in Tissue-Tek OCT-compound (Bayer Diagnostics, Puteaux, France). […] Images were taken using a fluorescence microscope (Olympus BX51, Rungis, France) equipped with a CCD camera (Olympus DP70). […]
# ENaC-α = ENaC-α immunolocalization in retina of aldosterone-injected eyes; assay type: in vivo, Lewis rats; conditions: aldosterone-injected vs saline-injected eyes
# Procedure: as §1
# (§2) Eyes were snap frozen in Tissue-Tek OCT-compound (Bayer Diagnostics, Puteaux, France). Ten μm cryostat sections of rat eyes were fixed in 4% PFA for 15 min and permeabilized with 0.1% Triton X-I00 for 30 min. Unspecific binding sites were blocked with 5% normal goat serum for 1 hr. The sections were then incubated with primary antibodies for 1 hr at room temperature, washed in PBS, and further incubated with secondary antibodies for 1 hr. […] Images were taken using a fluorescence microscope (Olympus BX51, Rungis, France) equipped with a CCD camera (Olympus DP70). […]
# Kir4.1 = Kir4.1 immunofluorescence in retina of aldosterone-injected eyes; assay type: in vivo, Lewis rats; conditions: intravitreous aldosterone vs sham-injected
# Procedure: as §1, §2
# retina = assay: Intravitreous aldosterone injection in rat eyes: retinal morphology and thickness; assay type: in vivo, Lewis rats
# Procedure: All experiments were performed in accordance with the European Communities Council Directive 86/609/EEC and approved by local ethical committees. Adult female Lewis rats (8-12 weeks old, Janvier, Le Genest-Saint-Isle, France) were used for preparation of RMG primary cultures, for retinal organotypic cultures and for in vivo experiments. Rats were sacrificed by carbon dioxide inhalation.
# as §1
# Enucleated eyes were fixed in 2.5% glutaraldehyde in cacodylate buffer (0.1 M, pH 7.4). After 30 min, eyes were dissected at the level of the limbus and lens removed. The posterior part was fixed for a further 5 hrs, dehydrated in a graded alcohol series (50%, 70%, 95% and 100%) and embedded in epoxy resin. Semi-thin sections (1 J.Im) were cut using an ultramicrotome (Reichert Ultracut E, Leica, Wetzlar, Germany), and stained with toluidine blue. The morphology was examined under a light microscope (DMRB, Leica). Retinal thickness was measured manually every 100 μm from the peripheral to the posterior pole. For analysis, the retina was divided into 3 zones: periphery, middle and posterior pole. In each zone, 3-4 individual measurements were performed in each section. Two to 6 sections were analyzed per rat (3 rats with aldosterone intravitreous injection and 3 with sham injection)
# [3] = single intravitreous injection, 20 nM, 24 hrs later
structure (smiles),measurement,setting,value
C[C@]12CCC(=O)C=C1CC[C@@H]1[C@@H]2[C@@H](O)C[C@]2(C=O)[C@@H](C(=O)CO)CC[C@@H]12 [aldosterone],expression of the water channel AQP4,AQP4 [1],up-regulates
same,expression of aquaporin 1,aquaporin 1,reduces
same,AQP4 localization / pattern of expression in retina,AQP4 [2],additional localization; also recorded: extends all along RMG prolongations up to the OLM in their apical microvilli; also recorded: perivascular AQP4 fluorescence is more intense; also recorded: additional mislocalization
same,ENaC-α expression intensity and number of expressing cells in retina,ENaC-α,increased in the INL
same,Kir4.1 localization in retina,Kir4.1,additional localization; also recorded: enhanced Kir4.1 immunofluorescence in the RMG apical microvilli in the OLM; also recorded: additional mislocalization
same,retinal swelling (increase compared to sham-injected eyes),"retina; intravitreous injection, 20 nM final in the vitreous, 24 hrs",24%
same,Retinal thickness compared to sham-injected eyes,retina; [3],significantly increased
same,retinal morphological changes on semi-thin sections,retina; [3],fluid accumulation in the entire retina

# Source: patent US9610294B2, “Methods and compositions for the treatment of fluid accumulation in and/or under the retina” (UNIVERSITE PARIS DESCARTES, priority 2010, dated 2017)
